Reference: patent US20240342292A1, “Compounds for the Degradation of EGFR Kinase” (BeiGene Switzerland GmbH, priority 2021, published 2024)
Read-outs that look alike come from different tables or passages of the source.

Key:
[1] = amide bond, 15-membered ring
[2] = tested on: Del19/C797S EGFR; test: EGFR degradation HTRF assay in H1975-clone #23 (DC) cells; assay type: cell-based; settings: H1975 #23 DC (Del19/C797S), 16h treatment; for DC50: HTRF; for Dmax (%): maximum percentage of degradation
Text: (§1) H1975-clone #28(Del19/T790M/C797S, or abbr: DTC), H1975-clone #23(Del19/C797S, or abbr: DC), H1975-clone #25(L858R/T790M/C797S, or abbr: LTC) and H1975-clone #8 (L858R/C797S, or abbr: LC). EGFR-Del19:T790M/C797S, EGFR-Del19/C797S, EGFR-L858R/T790M/C797S and EGFR-L858R/C797S were stably expressed in H1975 cell lines by lentivirus-mediated over-expression, respectively. The EGFR over-expressed cells then underwent knockout, in which the EGFR targeting sgRNA was designed to only target the endogenous EGFR copies and preserve the exogenous EGFR copies. Followed by the knockout, the edited H1975 cells were seeded in 96 well plates at the concentration of […], cultured for about 2 weeks to allow single clones formation. The formed clones were screened by DNA sequencing and whole exon sequencing analysis for the desired edition. H1975-clone #28, H1975-clone #23, H1975-clone #25 and H1975-clone #8 were finally confirmed as homozygous Del19/T790M/C797S EGFR, Dell9/C797S EGFR, L858R/T790M/C797S EGFR and L858R/C797S EGFR clones, respectively.
(§2) H1975-#25, H1975-#28, H1975-#23 and H1975-#8 cells are treated with compounds diluted in 0.2% DMSO cell culture medium on day 2, incubate for 16h, 37° C., 5% CO2. the final concentration of compounds in all assay is start with 10 uM, 5-fold dilution, total 8 doses were included.
(§3) After 16h treatment, add HTRF lysis buffer to each well; seal the plate and incubate 1 hour at room temperature on a plate shaker; Once the cells are lysed, 16 μL of cell lysate are transferred to a PE 384-well HTRF detection plate; 4 μL of pre-mixed HTRF antibodies are added to each well; Cover the plate with a plate sealer, spin 1000 rpm for 1 min, Incubate overnight at room temperature; Read on BMG PheraStar with HTRF protocol (337 nm-665 nm-620 nm).
(§4) The IC50 (DC50) value of a compound can be obtained by fitting the following equation
(§5) Y=Bottom+(TOP−Bottom)/(1+((IC50/X)^hillslope))
(§6) Wherein, X and Y are known values, and IC50, Hillslope, Top and Bottom are the parameters obtained by fitting with software. Y is the inhibition percentage (calculated from the equation), X is the concentration of the compound: IC50 is the concentration of the compound when the 50% inhibition is reached. The smaller the IC50 value is, the stronger the inhibitory ability of the compound is. Vice versa, the higher the IC50 value is, the weaker the ability the inhibitory ability of the compound is: Hillslope represents the slope of the fitted curve, generally around 1*; Bottom represents the minimum value of the curve obtained by data fitting, which is generally 0%±20%; Top represents the maximum value of the curve obtained by data fitting, which is generally 100%±20%. The experimental data were fitted by calculating and analyzing with Dotmatics data analysis software.

[3] = biological target: T1, L858R/T790M/C797S EGFR (Homo sapiens, UniProt P00533, C797S/L858R/T790M); test: EGFR degradation HTRF assay in H1975-clone #25 (LTC) cells; assay type: cell-based; settings: 16h treatment; for DC50 / Dmax (%): H1975 # 25-LTC (L858R/T790M/C797S); for DC50: HTRF; for Dmax: NCI-H1975, H1975 # 25-LTC (L858R/T790M/C797S); for Dmax / Dmax (%): maximum percentage of degradation
T1 construct: expressed in transfected cells; host or cells: H1975 clone #25 (lentiviral over-expression, endogenous EGFR knocked out by sgRNA)
Outline: (§7)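 Cells carrying only lentiviral mutant EGFR, since endogenous alleles were removed by CRISPR, received compounds on day 2 for 16 h. Final concentrations ran from 10 uM down in 5-fold steps over 8 doses. After lysis, EGFR levels were quantified by HTRF and DC50 derived by curve fitting.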

[4] = tested on: Del19/T790M/C797S EGFR; test: EGFR degradation HTRF assay in H1975-clone #28 (DTC) cells; assay type: cell-based; settings: H1975 # 28 DTC (Del19/T790M/C797S), 16h treatment; for DC50: HTRF; for Dmax (%): maximum percentage of degradation
Outline: as §7

[5] = biological target: T2, L858R/C797S EGFR (Homo sapiens, UniProt P00533, C797S/L858R); test: EGFR degradation HTRF assay in H1975-clone #8 (LC) cells; assay type: cell-based; settings: H1975 #8 LC (L858R/C797S), 16h treatment
T2 construct: expressed in transfected cells; host or cells: H1975 clone #8 (lentiviral over-expression, endogenous EGFR knocked out by sgRNA)
Text: as §1, §2, §3, §4, §5, §6

Row | Molecule | DC50 [3] [nM] | Dmax [3] [%] | DC50 [4] [nM] | Dmax (%) [4] [%] | other results
1 | COC(=O)c1cc(C)nc(-c2cnn(C)c2OCCC[C@@H](C)Cn2c(N)nc3ccc(N4CCC5(CC4=O)OCCO5)cc32)c1 | – | – | – | – | ring closure, isolated yield ([1]; the molecule shown is the open-chain precursor, LiHMDS, DMF/THF, 32.0 mM, 0.0 °C): 54.5%
2 | COC(=O)c1cc(C)nc(-c2cnn(C)c2OCC[C@H]2C[C@@H]2Cn2c(=N)[nH]c3ccc(Br)cc32)c1 | – | – | – | – | ring closure, isolated yield ([1]; the molecule shown is the open-chain precursor, LiHMDS, DMF/THF, 56.7 mM, 25.0 °C): 49.6%
3 | Cc1cc2cc(n1)-c1cnn(C)c1OCCC[C@@H](C)Cn1c(nc3ccc(Br)cc31)NC2=O | – | – | – | – | ring closure, isolated yield ([1]; from Cc1cc(C(=O)O)cc(-c2cnn(C)c2OCCC[C@@H](C)Cn2c(N)nc3ccc(Br)cc32)n1, TBTU/TEA, DCM, 117.0 mM, 20.0 °C): 82%
4 | Cc1cc2cc(n1)-c1cnn(C)c1OCCC[C@@H](C)CN1/C(=N/C2=O)Nc2ccc(CN3CCN(C(=O)[C@@H]4CCN(c5cc(F)c([C@H]6CCC(=O)NC6=O)c(F)c5)C4)CC3)cc21 [Example 5, (R)-3-(2,6-difluoro-4-((R)-3-(4-(((R,E)-1^1,2^6,7-trimethyl-3-oxo-5^2,5^3-dihydro-1^1H,5^1H-11-oxa-4-aza-5(2,1)-benzo[d]imidazola-2(2,4)-pyridina-1(4,5)-pyrazolacycloundecaphane-5^6-yl)methyl)piperazine-1-carbonyl)pyrrolidin-1-yl)phenyl)piperidine-2,6-dione] | 2 | 83 | 1.5 | 72.0 | DC50 [2]: 0.6 nM; Dmax (%) [2]: 67.6%
5 | (R)-3-(2,6-difluoro-4-(3-(7-(((R,E)-1^1,2^6,7-trimethyl-3-oxo-5^2,5^3-dihydro-1^1H,5^1H-11-oxa-4-aza-5(2,1)-benzo[d]imidazola-2(2,4)-pyridina-1(4,5)-pyrazolacycloundecaphane-5^6-yl)methyl)-2,7-diazaspiro[3.5]nonane-2-carbonyl)azetidin-1-yl)phenyl)piperidine-2,6-dione [Example 25] | 0.4 | – | 0.6 | 86.3 | Dmax (%) [3]: 93.6%
6 | tert-butyl (R,E)-3-oxo-4-(1^1,2^6,7-trimethyl-3-oxo-5^2,5^3-dihydro-1^1H,5^1H-11-oxa-4-aza-5(2,1)-benzo[d]imidazola-2(2,4)-pyridina-1(4,5)-pyrazolacycloundecaphane-5′-yl)piperazine-1-carboxylate | – | – | – | – | ring closure, isolated yield ([1]; HATU/DIEA, DCM, 155.0 mM, 25.0 °C): 51.4%

Further lines, with some results ahead:

Row | DC50 [3] [nM] | Dmax [3] [%] | DC50 [4] [nM] | Molecule | Dmax (%) [4] [%] | other results
7 | 1.1 | 89.9 | 0.8 | Cc1cc2cc(n1)-c1cnn(C)c1OCCC[C@@H](C)CN1/C(=N/C2=O)Nc2ccc(CN3CCC(N4CCN(C(=O)[C@@H]5CCN(c6cc(F)c([C@H]7CCC(=O)NC7=O)c(F)c6)C5)CC4)CC3)cc21 [Example 6, (R)-3-(2,6-difluoro-4-((R)-3-(4-(1-(((R,E)-1^1,2^6,7-trimethyl-3-oxo-5^2,5^3-dihydro-1^1H,5^1H-11-oxa-4-aza-5(2,1)-benzo[d]imidazola-2(2,4)-pyridina-1(4,5)-pyrazolacycloundecaphane-5^6-yl)methyl)piperidin-4-yl)piperazine-1-carbonyl)pyrrolidin-1-yl)phenyl)piperidine-2,6-dione] | 85.7 | DC50 [2]: 1.7 nM; Dmax (%) [2]: 78.2%; DC50 ([5]; HTRF): 3 nM; Dmax ([5]; NCI-H1975, maximum percentage of degradation): 63.1%
8 | 0.472 | 94.8 | 0.319 | Cc1cc2cc(n1)-c1cnn(C)c1OCC[C@H]1C[C@@H]1CN1/C(=N/C2=O)Nc2ccc(N3CCN(C4CCN(c5ccc(C6CCC(=O)NC6=O)nc5C)CC4)CC3)cc21 (stereo partly drawn) [Example 465, 3-(5-(4-(4-((7^1S,7^2R,E)-1^1,2^6-dimethyl-3-oxo-5^2,5^3-dihydro-1^1H,5^1H-10-oxa-4-aza-5(2,1)-benzo[d]imidazola-2(2,4)-pyridina-1(4,5)-pyrazola-7(1,2)-cyclopropanacyclodecaphane-5^6-yl)piperazin-1-yl)piperidin-1-yl)-6-methylpyridin-2-yl)piperidine-2,6-dione] | 90.39 | –
9 | 2.12 | 88.1 | 2.25 | COC[C@@H]1CN(c2ccc3c(c2)N2C[C@H]4C[C@@H]4CCOc4c(cnn4C)-c4cc(cc(C)n4)C(=O)/N=C/2N3)CCN1C1CCN(c2cc(F)c([C@H]3CCC(=O)NC3=O)c(F)c2)CC1 [Example 468, (R)-3-(4-(4-((S)-4-((7'S,7^2R,E)-1^1,2^6-dimethyl-3-oxo-5^2,5^3-dihydro-1^1H,5^1H-10-oxa-4-aza-5(2,1)-benzo[d]imidazola-2(2,4)-pyridina-1(4,5)-pyrazola-7(1,2)-cyclopropanacyclodecaphane-5^6-yl)-2-(methoxymethyl)piperazin-1-yl)piperidin-1-yl)-2,6-difluorophenyl)piperidine-2,6-dione] | 85.54 | –
10 | 0.794 | 82.7 | 0.594 | Cc1cc2cc(n1)-c1cnn(C)c1OCC[C@H]1C[C@@H]1CN1/C(=N/C2=O)Nc2ccc(N3CCN(C4CCN(c5ccc(C6CCC(=O)NC6=O)nc5)CC4)CC3)cc21 (stereo partly drawn) [Example 469, 3-(5-(4-(4-((7'S,7^2R,E)-1^1,2^6-dimethyl-3-oxo-5^2,5^3-dihydro-1^1H,5^1H-10-oxa-4-aza-5(2,1)-benzo[d]imidazola-2(2,4)-pyridina-1(4,5)-pyrazola-7(1,2)-cyclopropanacyclodecaphane-5^6-yl)piperazin-1-yl)piperidin-1-yl)pyridin-2-yl)piperidine-2,6-dione] | 76.63 | –
11 | 0.849 | 92.1 | 0.617 | Cc1cc2cc(n1)-c1cnn(C)c1OCC[C@@H]1C[C@H]1CN1/C(=N/C2=O)Nc2ccc(N3CCN(C4CCN(c5cnc(C6CCC(=O)NC6=O)cc5C)CC4)CC3)cc21 (stereo partly drawn) [Example 470, 3-(5-(4-(4-((7^1R,7^2S,E)-1^1,2^6-dimethyl-3-oxo-5^2,5^3-dihydro-1^1H,5^1H-10-oxa-4-aza-5(2,1)-benzo[d]imidazola-2(2,4)-pyridina-1(4,5)-pyrazola-7(1,2)-cyclopropanacyclodecaphane-5^6-yl)piperazin-1-yl)piperidin-1-yl)-4-methylpyridin-2-yl)piperidine-2,6-dione] | 86.76 | –
12 | 0.28 | – | 0.587 | (R,E)-N—((S)-1-(4-((R)-2,6-dioxopiperidin-3-yl)-3,5-difluorophenethyl)azepan-4-yl)-N,1^1,2^6,7-tetramethyl-3-oxo-5^2,5^3-dihydro-1^1H,5^1H-11-oxa-4-aza-5(2,1)-benzo[d]imidazola-2(2,4)-pyridina-1(4,5)-pyrazolacycloundecaphane-5^6-carboxamide [Example 340] | 83.73 | Dmax (%) [3]: 91.69%
